Where a SMILES comes first, the peptide text is derived from it. Bridges are numbered along the chain shown (N, C = ends).
Assays:
rKV1.2 = target: T1, rKV1.2 (Rattus norvegicus, UniProt P63142); assay: Two-electrode voltage-clamp, X. laevis oocytes expressing rKV1.2; type: cell-based
T1 construct: expressed in transfected cells; host or cells: Xenopus laevis oocytes injected with cRNA
Method: (§1) Stage V–VI of X. laevis oocytes were harvested by partial ovariectomy under anesthesia (3-aminobenzoic acid ethyl ester methanesulfonate salt, 0.5 g/L from Sigma-Aldrich Co., Saint Louis, MO, USA). The oocytes were defolliculated for 2 h by treatment with 2 mg/mL collagenase (Sigma-Aldrich Co., Saint Louis, MO, USA) in Ca^2+ free ND96 solution (in mM: 96 NaCl; 2 KCl; 1 MgCl2; 5 HEPES adjusted pH 7.4). For the expression of KV channels (KV1.1–KV1.6, KV2.1, KV3.1, KV4.2, KV4.3, hERG and the insect channel Shaker IR), the linearized plasmids were transcribed using the T7 or SP6 mMessage-mMachine transcription kit (Ambion, Austin, TX, USA). Oocytes were injected with 50 nL of cRNA at a concentration of 1 ng/nL using a microinjector (Drummond Scientific, Broomall, PA, USA). The oocytes were maintained in a ND96 solution (in mM: 96 NaCl, 2 KCl, 1.8 CaCl2, 2 MgCl2 and 5 HEPES; adjusted pH 7.4), supplemented with 50 µg/mL gentamicin sulfate.
(§2) Two-electrode voltage-clamp recordings were performed at room temperature (18–22 °C) using a Geneclamp 500 amplifier (Molecular Devices, Sunnyvale, CA, USA) controlled by a pClamp data acquisition system (Axon Instruments, Union City, CA, USA). Whole-cell currents from oocytes were recorded from 1 to 3 days after injection. Bath solution was the same ND96 solution described above. Voltage and current electrodes were filled with 3 M KCl. Resistances of both electrodes were kept between 0.8 and 1.0 ΩM. The elicited currents were filtered at 500 Hz using a four-pole lowpass Bessel filter. Leak subtraction was performed using a −P/4 protocol. KV1.1–KV1.6 and Shaker IR currents were evoked by 500 ms depolarizations to 0 mV, followed by a 500 ms pulse to −50 mV, from a holding potential of −90 mV. Current traces of hERG channels were elicited by applying a +40 mV prepulse for 2 s, followed by a step to −120 mV for 2 s. KV3.1, KV 4.2 and KV4.3 currents were elicited by 500 ms pulses to +20 mV from a holding potential of −90 mV. To assess the concentration-response relationships, data were fitted with the Hill equation: y = 100/[1 + (EC50/[toxin])h] (1) where y is the amplitude of the toxin-induced effect, EC50 is the toxin concentration at half maximal efficacy, [toxin] is the toxin concentration and h is the Hill coefficient. In order to investigate the current-voltage relationship, current traces were evoked by 10 mV depolarization steps from a holding potential of −90 mV. […]
(§3) Comparison of two sample means was made using a paired Student’s t test (p < 0.05). […] All data were analyzed using Clampfit 10.3 (Molecular Devices, Sunnyvale, CA, USA) and Origin 7.5 software (Origin Lab., Northampton, MA, USA).

rKV1.6 = target: T2, rKV1.6 (Rattus norvegicus, UniProt P17659); assay: Two-electrode voltage-clamp, X. laevis oocytes expressing rKV1.6; type: cell-based; conditions: mean ± standard error
T2 construct: expressed in transfected cells; host or cells: Xenopus laevis oocytes injected with cRNA
T2 sequence (P17659 whole entry): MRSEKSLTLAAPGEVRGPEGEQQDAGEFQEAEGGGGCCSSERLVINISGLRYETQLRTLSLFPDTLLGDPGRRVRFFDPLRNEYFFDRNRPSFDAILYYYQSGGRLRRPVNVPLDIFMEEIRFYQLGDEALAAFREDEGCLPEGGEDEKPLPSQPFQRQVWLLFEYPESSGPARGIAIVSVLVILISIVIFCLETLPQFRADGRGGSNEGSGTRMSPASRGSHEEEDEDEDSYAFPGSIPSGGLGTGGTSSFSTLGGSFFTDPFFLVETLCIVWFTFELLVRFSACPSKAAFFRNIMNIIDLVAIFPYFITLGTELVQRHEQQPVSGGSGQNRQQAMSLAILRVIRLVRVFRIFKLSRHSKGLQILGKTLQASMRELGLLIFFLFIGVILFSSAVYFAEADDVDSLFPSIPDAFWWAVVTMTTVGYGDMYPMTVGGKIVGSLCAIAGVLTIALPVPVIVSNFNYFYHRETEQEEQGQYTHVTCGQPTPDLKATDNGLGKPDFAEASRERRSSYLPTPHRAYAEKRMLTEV
Method: as §1, §2, §3

Shaker IR = target: T3, Shaker IR (Drosophila melanogaster, UniProt P08510, DEL6-46); assay: Two-electrode voltage-clamp, X. laevis oocytes expressing Shaker IR; type: cell-based, insect; conditions: mean ± standard error
T3 construct: expressed in transfected cells; host or cells: Xenopus laevis oocytes injected with cRNA
T3 sequence (P08510 with tags, fused parts or gaps DEL6-46): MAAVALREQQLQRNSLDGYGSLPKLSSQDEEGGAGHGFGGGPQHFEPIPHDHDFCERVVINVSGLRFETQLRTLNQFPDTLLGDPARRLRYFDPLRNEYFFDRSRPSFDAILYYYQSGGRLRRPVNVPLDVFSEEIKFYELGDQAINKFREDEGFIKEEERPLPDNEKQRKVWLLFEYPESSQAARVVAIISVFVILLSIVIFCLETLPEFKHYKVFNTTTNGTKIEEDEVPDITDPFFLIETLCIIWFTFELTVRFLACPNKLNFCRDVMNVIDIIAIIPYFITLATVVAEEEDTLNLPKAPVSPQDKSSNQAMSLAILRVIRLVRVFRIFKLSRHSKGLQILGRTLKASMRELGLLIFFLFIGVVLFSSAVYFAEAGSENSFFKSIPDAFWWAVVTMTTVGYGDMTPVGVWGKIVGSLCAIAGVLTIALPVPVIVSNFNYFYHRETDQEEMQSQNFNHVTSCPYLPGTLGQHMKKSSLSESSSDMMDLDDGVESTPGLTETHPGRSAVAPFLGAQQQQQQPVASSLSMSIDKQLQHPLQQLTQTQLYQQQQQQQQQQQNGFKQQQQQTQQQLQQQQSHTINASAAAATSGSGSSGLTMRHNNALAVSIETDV
Method: as §1, §2, §3

[1] = tested on: KV1.1–KV1.6, KV2.1, KV3.1, KV4.2, KV4.3, hERG and Shaker IR; assay: Electrophysiological screening on 12 cloned KV channel isoforms in X. laevis oocytes; type: cell-based, rat, human, insect
Method: The pharmacological profile of BcsTx-1 and -2 were determined on a wide range of twelve KV channels (rKV1.1, rKV1.2, hKV1.3, rKV1.4, rKV1.5, rKV1.6, rKV2.1, rKV3.1, rKV4.2, rKV4.3, hERG and the insect channel Shaker IR; r: rat and h: human). Channels were expressed in X. laevis oocytes, and their currents were recorded by using two-electrode voltage-clamp technique. BcsTx1 (0.5 µM) inhibited rKv1.1, rKv1.2, rKv1.3, rKv1.6 and Shaker IR channels with 44% ± 2%, 100%, 100%, 88% ± 3% and 64% ± 4%, respectively (Figure 6). […] Type 1 toxins, such as BgK and ShK, have been extensively characterized. […] Some of the other type 1 toxins were indirectly assayed by competitive inhibition of the binding of ^125I-dendrotoxins, allowing the conclusion that they will show activity on KV1.1, KV1.2 and/or KV1.6, since dendrotoxins only block the current of these KV channels. […] Thus, it is worth mentioning that our work represents the first electrophysiological characterization of type 1 sea anemone toxin activity on cloned Shaker IR insect channel.
as §1
Two-electrode voltage-clamp recordings were performed at room temperature (18–22 °C) using a Geneclamp 500 amplifier (Molecular Devices, Sunnyvale, CA, USA) controlled by a pClamp data acquisition system (Axon Instruments, Union City, CA, USA). Whole-cell currents from oocytes were recorded from 1 to 3 days after injection. Bath solution was the same ND96 solution described above. Voltage and current electrodes were filled with 3 M KCl. Resistances of both electrodes were kept between 0.8 and 1.0 ΩM. The elicited currents were filtered at 500 Hz using a four-pole lowpass Bessel filter. Leak subtraction was performed using a −P/4 protocol. KV1.1–KV1.6 and Shaker IR currents were evoked by 500 ms depolarizations to 0 mV, followed by a 500 ms pulse to −50 mV, from a holding potential of −90 mV. Current traces of hERG channels were elicited by applying a +40 mV prepulse for 2 s, followed by a step to −120 mV for 2 s. KV3.1, KV 4.2 and KV4.3 currents were elicited by 500 ms pulses to +20 mV from a holding potential of −90 mV. To assess the concentration-response relationships, data were fitted with the Hill equation: y = 100/[1 + (EC50/[toxin])h] (1) where y is the amplitude of the toxin-induced effect, EC50 is the toxin concentration at half maximal efficacy, [toxin] is the toxin concentration and h is the Hill coefficient. In order to investigate the current-voltage relationship, current traces were evoked by 10 mV depolarization steps from a holding potential of −90 mV. The activation curves were fitted with a Boltzmann relationship of the form: 1/(1 + e^[−(V − V^1/2)/^S^]) (2) where V1/2 is the voltage for half-maximal activation and s is the slope factor. The activation kinetics were obtained by mono-exponential fits to the raw current traces.

hKV1.3 = hKV1.3 (Homo sapiens, UniProt P22001); assay: Two-electrode voltage-clamp, X. laevis oocytes expressing hKV1.3; type: cell-based; set-up: expressed in transfected cells; host or cells: Xenopus laevis oocytes injected with cRNA
Chain of hKV1.3 (P22001 whole entry): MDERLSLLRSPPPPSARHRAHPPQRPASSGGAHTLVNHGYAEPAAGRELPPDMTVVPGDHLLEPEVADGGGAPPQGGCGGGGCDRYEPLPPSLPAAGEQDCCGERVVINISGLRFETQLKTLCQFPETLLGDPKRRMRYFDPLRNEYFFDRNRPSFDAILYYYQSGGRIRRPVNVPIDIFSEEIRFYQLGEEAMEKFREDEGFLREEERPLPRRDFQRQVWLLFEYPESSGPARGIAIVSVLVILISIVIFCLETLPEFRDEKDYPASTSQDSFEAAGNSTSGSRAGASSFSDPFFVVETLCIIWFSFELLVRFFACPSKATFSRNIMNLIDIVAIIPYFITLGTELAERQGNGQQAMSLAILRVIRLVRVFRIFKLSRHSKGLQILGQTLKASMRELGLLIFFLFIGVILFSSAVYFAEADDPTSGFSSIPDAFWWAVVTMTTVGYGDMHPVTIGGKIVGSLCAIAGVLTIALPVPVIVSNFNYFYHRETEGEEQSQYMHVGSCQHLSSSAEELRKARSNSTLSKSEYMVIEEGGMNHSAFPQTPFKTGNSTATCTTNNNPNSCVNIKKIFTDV
Method: as §1, §2, §3

[2] = TEVC, 18–22 °C, ND96 pH 7.4, 500 ms depolarizations to 0 mV from −90 mV, Hill fit, mean ± standard error, n ≥ 3
[3] = TEVC, 18–22 °C, ND96 pH 7.4, 500 ms depolarizations to 0 mV from −90 mV, Hill fit, n ≥ 3

T1 sequence (P63142 whole entry): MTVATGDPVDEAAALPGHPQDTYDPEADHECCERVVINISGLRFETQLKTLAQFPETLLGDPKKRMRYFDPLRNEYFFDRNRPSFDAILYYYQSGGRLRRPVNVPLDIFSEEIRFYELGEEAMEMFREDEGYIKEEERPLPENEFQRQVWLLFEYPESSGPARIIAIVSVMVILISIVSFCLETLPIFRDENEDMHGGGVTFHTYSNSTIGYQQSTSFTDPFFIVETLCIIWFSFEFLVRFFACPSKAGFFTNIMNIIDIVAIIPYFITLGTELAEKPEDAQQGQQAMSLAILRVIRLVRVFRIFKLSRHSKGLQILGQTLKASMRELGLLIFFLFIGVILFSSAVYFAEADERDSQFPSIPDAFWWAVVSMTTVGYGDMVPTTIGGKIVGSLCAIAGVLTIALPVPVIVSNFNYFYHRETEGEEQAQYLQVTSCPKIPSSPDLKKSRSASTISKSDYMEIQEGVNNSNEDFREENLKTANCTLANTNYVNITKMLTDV

Structure (SMILES): CC(C)C[C@@H]1NC(=O)[C@H](CCCCN)NC(=O)[C@H](C)NC(=O)[C@H](Cc2c[nH]cn2)NC(=O)[C@H](CCC(N)=O)NC(=O)[C@@H]2CSSC[C@@H]3NC(=O)[C@H](CC(N)=O)NC(=O)[C@H](C)NC(=O)[C@H](CCCNC(=N)N)NC(=O)[C@H](Cc4ccc(O)cc4)NC(=O)[C@H](CCCCN)NC(=O)[C@H](CCC(N)=O)NC(=O)[C@H](CO)NC(=O)[C@H](CC(N)=O)NC(=O)[C@H](CCCCN)NC(=O)[C@H](CSSC[C@H](NC(=O)[C@H]([C@@H](C)O)NC(=O)[C@H](CCCCN)NC(=O)[C@H](C)NC3=O)C(=O)NCC(=O)N3CCC[C@H]3C(=O)N[C@H](C(=O)O)CSSC[C@H](NC(=O)[C@H](C)N)C(=O)N[C@@H](CCCCN)C(=O)N[C@@H](CC(=O)O)C(=O)NCC(=O)N[C@@H](Cc3ccccc3)C(=O)N3CCC[C@H]3C(=O)N[C@@H]([C@@H](C)O)C(=O)N[C@@H](C)C(=O)N[C@@H]([C@@H](C)O)C(=O)N2)NC(=O)[C@H](CC(N)=O)NC(=O)CNC(=O)[C@H](C(C)C)NC1=O [BcsTx2] (H-ACKDGFPTATCQHAKLVGNCKNSQKYRANCAKTCGPC-OH; disulfide 2-37, 11-30, 20-34; C-terminus assumed)
- inhibition at 3 µM (rKV1.2; 3 µM, n ≥ 3, read-out: inhibition of rKV1.2 current): 100%
- IC50 (rKV1.2; [2]): 80.4 ± 1.44 nM
- inhibition at 3 µM (rKV1.6; 3 µM, n ≥ 3, read-out: inhibition of rKV1.6 current): 98%
- IC50 (rKV1.6; [3]): 7.76 ± 1.9 nM
- inhibition at 3 µM (Shaker IR; 3 µM, n ≥ 3, read-out: inhibition of Shaker IR current): 94%
- IC50 (Shaker IR; [3]): 49.1 ± 3.44 nM
- selectivity among KV channels (in words) ([1]; 3 µM, 12 KV isoforms): selectively blocks Shaker channels subfamily
- potency class on KV channels (in words) ([1]; summary of IC50 values, compared with BgK and type 2 toxins): within the nanomolar range
- affinity/potency order among KV channels (in words) ([1]; summary of the electrophysiological characterization): potently blocked rKv1.6 over hKv1.3, rKv1.1, Shaker IR and rKv1.2
- inhibition at 3 µM (hKV1.3; 3 µM, n ≥ 3, read-out: inhibition of hKV1.3 current): 100%
- IC50 (hKV1.3; [2]): 13.1 ± 3.29 nM

From paper PMC3705364, “Biochemical and Electrophysiological Characterization of Two Sea Anemone Type 1 Potassium Toxins from a Geographically Distant Population of Bunodosoma caissarum” (Marine Drugs, 2013)
